# Literature values in patent US20090304576A1, “DEVICE FOR DELIVERY OF ANTI-CANCER AGENTS TO TISSUE” (priority 2006, published 2009).
# Settings: diffusion in solid tissue such as brain; estimated
compound,measurement,value
O=NN(CCCl)C(=O)NCCCl [carmustine],maximum effective range from a source,about 5 mm
